Laboratory results reported in patent US20230413822A1, “ORAL CANINE FEED AND METHODS FOR C[…] INFESTATIONS IN A CANINE” (In the Bowl Animal Health, Inc., priority 2021, published 2023).
Values joined by “and” are separate entries in the source; they are usually repeats but may differ in a detail not shown here. Equal entries are not always repeated.

What was measured:
[1] = Plasma concentration of mivorilaner in dogs fed medicated daily feed (Example 6); assay type: in vivo; set-up: unit not given here
Excerpt: Methods: A pool of dogs are to be preliminarily infested with ˜50 unfed adult R. sanguineus ticks in order to produce dogs that can suitably sustain a reliable infestation rate, defined as approximately 25% of attached ticks being live at the end of a 72-hour period. The 24 dogs with the highest live attached tick counts are to be selected for inclusion in the study. The 18 dogs with the highest live attached tick counts are to be randomly assigned to one of a control group and 2 treatment groups. The 6 dogs with the next highest live attached tick counts are to be assigned to a third treatment group.
The dogs are to be housed individually during the study period and are to have ad libitum access to water.
Each dog in a treatment group (test groups 2-4) is to receive a medicated daily feed from study days 0-49. The medicated daily feed is to be offered to the dogs for 1 hour on each of days 0-49 according to test groups listed in TABLE 7.
Sample results of the average plasma concentration of isoxazoline in a canine's blood at different dosage levels are shown in TABLE 8 and FIG. 9 for mivorilaner.

[2] = Plasma concentration of mivorilaner in dogs given an oral liquid formulation daily (Example 1); assay type: in vivo; details: for Mivorilaner Concentration, Average: average of 6 canines, days 0-29; for Mivorilaner Concentration: individual canines, days 0-29, 0.75 mg/kg/day
Excerpt: Methods: A pool of 14 dogs are to be preliminarily infested with ˜100 unfed adult C. felis in order to produce dogs that can suitably sustain a reliable infestation rate, defined as approximately 50% fleas being live at the end of a 48-hour period. The 12 dogs with the highest live flea counts are to be selected for inclusion in the study. The dogs are to be divided into a control group and a treatment group.
The dogs are to be housed individually during the study period and are to be fed a commercial dry dog food ration with ad libitum access to water.
Each dog in the treatment group is to receive by mouth a liquid formulation of isoxazoline. The dosage of 0.75 mg/kg is to be administered to the dogs on each of days 0-29.
Dogs in the control group are not to receive isoxazoline or any other tick control treatment. Each dog in the treatment group is to be offered its daily ration (dry food) and the individual doses of liquid formulation are to be administered after the individual dog has eaten at least 25% of its total daily ration. After receiving the dose of isoxazoline, the dogs are to be allowed to continue eating. This mimics incorporating the isoxazoline in feed. Each dog in the treatment group and the control group is to be experimentally infested with 50 adult ticks on test days 5, 12, 19, 28 and 35. Comb counts for live and moribund attached ticks are to be conducted on days 7, 14, 21, 30 and 37.

With O=C(CNC(=O)c1sc(C2=NO[C@@](c3cc(Cl)c(F)c(Cl)c3)(C(F)(F)F)C2)c2c1CCC2)NCC(F)F [Mivorilaner, 3-[(5S)-5-(3,5-dichloro-4-fluorophenyl)-5-(trifluoromethyl)-4,5-dihydroisoxazol-3-yl]-N-[2-[(2,2-difluoroethyl)amino]-2-oxoethyl]-5,6-dihydro-4H-cyclopenta[c]thiophene-1-carboxamide] the “average plasma concentration of isoxazoline in a canine's blood” value (“average plasma concentration” for short) ([1]; Group 2-106 mg/kg feed (anticipated 1 mg/kg daily), Time 1 hr) was 49.98, the “average plasma concentration” value ([1]; Group 2-106 mg/kg feed (anticipated 1 mg/kg daily), Time 3 hr) was 292.00 and the “average plasma concentration” value ([1]; Group 2-106 mg/kg feed (anticipated 1 mg/kg daily), Time 6 hr) was 539.00. For the same molecule, the “average plasma concentration” value ([1]; Group 2-106 mg/kg feed (anticipated 1 mg/kg daily), Time 10 hr) was 505.40, the “average plasma concentration” value ([1]; Group 2-106 mg/kg feed (anticipated 1 mg/kg daily), Time 24 hr) was 458.60 and the “average plasma concentration” value ([1]; Group 2-106 mg/kg feed (anticipated 1 mg/kg daily), Time 48 hr) was 771.83. The “average plasma concentration” value ([1]; Group 2-106 mg/kg feed (anticipated 1 mg/kg daily), Time 96 hr) was 1570.50, the “average plasma concentration” value ([1]; Group 2-106 mg/kg feed (anticipated 1 mg/kg daily), Time 168 hr) was 2156.67 and the “average plasma concentration” value ([1]; Group 2-106 mg/kg feed (anticipated 1 mg/kg daily), Time 240 hr) was 3003.33. For the same molecule, the “average plasma concentration” value ([1]; Group 2-106 mg/kg feed (anticipated 1 mg/kg daily), Time 336 hr) was 3290.00, the “average plasma concentration” value ([1]; Group 3-106 mg/kg feed (anticipated 1 mg/kg daily), Time 1 hr) was 40.41 and the “average plasma concentration” value ([1]; Group 3-106 mg/kg feed (anticipated 1 mg/kg daily), Time 3 hr) was 264.83. The “average plasma concentration” value ([1]; Group 3-106 mg/kg feed (anticipated 1 mg/kg daily), Time 6 hr) was 467.50, the “average plasma concentration” value ([1]; Group 3-106 mg/kg feed (anticipated 1 mg/kg daily), Time 10 hr) was 419.17 and the “average plasma concentration” value ([1]; Group 3-106 mg/kg feed (anticipated 1 mg/kg daily), Time 24 hr) was 435.17. For the same molecule, the “average plasma concentration” value ([1]; Group 3-106 mg/kg feed (anticipated 1 mg/kg daily), Time 48 hr) was 781.83, the “average plasma concentration” value ([1]; Group 3-106 mg/kg feed (anticipated 1 mg/kg daily), Time 96 hr) was 1596.67 and the “average plasma concentration” value ([1]; Group 3-106 mg/kg feed (anticipated 1 mg/kg daily), Time 168 hr) was 2406.67. The “average plasma concentration” value ([1]; Group 3-106 mg/kg feed (anticipated 1 mg/kg daily), Time 240 hr) was 3026.67, the “average plasma concentration” value ([1]; Group 3-106 mg/kg feed (anticipated 1 mg/kg daily), Time 336 hr) was 3516.67 and the “average plasma concentration” value ([1]; Group 4-318 mg/kg feed (anticipated 3 mg/kg daily), Time 1 hr) was 143.75. The “average plasma concentration” value ([1]; Group 4-318 mg/kg feed (anticipated 3 mg/kg daily), Time 3 hr) was 846.50, the “average plasma concentration” value ([1]; Group 4-318 mg/kg feed (anticipated 3 mg/kg daily), Time 6 hr) was 1265.67 and the “average plasma concentration” value ([1]; Group 4-318 mg/kg feed (anticipated 3 mg/kg daily), Time 10 hr) was 1198.17. For the same molecule, the “average plasma concentration” value ([1]; Group 4-318 mg/kg feed (anticipated 3 mg/kg daily), Time 24 hr) was 1021.17, the “average plasma concentration” value ([1]; Group 4-318 mg/kg feed (anticipated 3 mg/kg daily), Time 48 hr) was 2011.67 and the “average plasma concentration” value ([1]; Group 4-318 mg/kg feed (anticipated 3 mg/kg daily), Time 96 hr) was 3928.33. The “average plasma concentration” value ([1]; Group 4-318 mg/kg feed (anticipated 3 mg/kg daily), Time 168 hr) was 6461.67, the “average plasma concentration” value ([1]; Group 4-318 mg/kg feed (anticipated 3 mg/kg daily), Time 240 hr) was 8696.67 and the “average plasma concentration” value ([1]; Group 4-318 mg/kg feed (anticipated 3 mg/kg daily), Time 336 hr) was 11600.00. The “Mivorilaner Concentration, Average” value ([2]; Day 3, 0.75 mg/kg/day oral) was 674 ng/mL, the “Mivorilaner Concentration, Average” value ([2]; Day 7, 0.75 mg/kg/day oral) was 1449 ng/mL and the “Mivorilaner Concentration, Average” value ([2]; Day 14, 0.75 mg/kg/day oral) was 2105 ng/mL. For the same molecule, the “Mivorilaner Concentration, Average” value ([2]; Day 21, 0.75 mg/kg/day oral) was 2725 ng/mL, the “Mivorilaner Concentration, Average” value ([2]; Day 30, 0.75 mg/kg/day oral) was 2628 ng/mL and the “Mivorilaner Concentration, Average” value ([2]; Day 37, 0.75 mg/kg/day oral) was 2017 ng/mL. For the same molecule, the “Mivorilaner Concentration” value ([2]; Day 3, 0.75 mg/kg/day oral) was 556 ng/mL and 648 ng/mL and 579 ng/mL and 660 ng/mL, the “Mivorilaner Concentration” value ([2]; Day 7, 0.75 mg/kg/day oral) was 1330 ng/mL and 1620 ng/mL and 994 ng/mL and 1470 ng/mL and the “Mivorilaner Concentration” value ([2]; Day 14, 0.75 mg/kg/day oral) was 1990 ng/mL and 2530 ng/mL and 1560 ng/mL and 2120 ng/mL. The “Mivorilaner Concentration” value ([2]; Day 21, 0.75 mg/kg/day oral) was 2750 ng/mL and 2820 ng/mL and 2450 ng/mL and 2720 ng/mL and the “Mivorilaner Concentration” value ([2]; Day 30, 0.75 mg/kg/day oral) was 2570 ng/mL and 2890 ng/mL and 2320 ng/mL and 2600 ng/mL.
